Assay results taken from ChEMBL document CHEMBL5528058 (J Med Chem, 2024).
The source made the active and inactive calls. The calls are words filed in the database; no cut-off is given here.

Key:
[1] = target: Programmed cell death protein 1/Programmed cell death 1 ligand 1 (Homo sapiens, UniProt Q9NZQ7)
Description: Inhibition of human PD-1/PD-L1 interaction by HTRF analysis

[2] = tested on: MDA-MB-231; assay: Antiproliferative activity against human MDA-MB-231 cells as cell killing incubated for 6 days by CCK-8 assay; conditions: MDA-MB-231, 144 h
[3] = tested on: 4T1; assay: Antiproliferative activity against mouse 4T1 cells as cell killing incubated for 6 days by CCK-8 assay; conditions: 4T1, 144 h
[4] = tested on: Jurkat; assay: Antiproliferative activity against human Jurkat cells as cell killing incubated for 6 days by CCK-8 assay; conditions: 144 h
[5] = tested on: 4T1; assay: Antitumor activity against mouse 4T1 cells implanted in BALB/c mouse assessed as increase in percentage of CD3+ CD4+ cells in spleen at 15 mg/kg, ip qd administered for 14 days by flow cytometry analysis (reference value: 6.72%); assay type: functional; conditions: time 14 day
[6] = tested on: 4T1; assay: Antitumor activity against mouse 4T1 cells implanted in BALB/c mouse assessed as increase in percentage of CD3+ CD8+ cells in spleen at 15 mg/kg, ip qd administered for 14 days by flow cytometry analysis (reference value: 3.34%); assay type: functional; conditions: time 14 day
[7] = tested on: 4T1; assay: Antitumor activity against mouse 4T1 cells implanted in BALB/c mouse assessed as increase in percentage of CD3+ CD4+ cells in tumor at 15 mg/kg, ip qd administered for 14 days by flow cytometry analysis (reference value: 0.32%); assay type: functional; conditions: time 14 day
[8] = tested on: 4T1; assay: Antitumor activity against mouse 4T1 cells implanted in BALB/c mouse assessed as increase in percentage of CD3+ CD8+ cells in tumor at 15 mg/kg, ip qd administered for 14 days by flow cytometry analysis (reference value: 0.64%); assay type: functional; conditions: time 14 day
[9] = target: Programmed cell death protein 1 (Homo sapiens, UniProt Q15116); assay: Inhibition of human recombinant PD-1 by HTRF analysis
[10] = AUC (0 to infinity) in ICR mouse at 1 mg/kg, iv measured upto 24 hrs by LCMS analysis; assay type: ADME, organism-based; conditions: in vivo
[11] = AUC (0 to infinity) in ICR mouse at 10 mg/kg, IG measured upto 24 hrs by LCMS analysis; assay type: ADME, organism-based; conditions: in vivo, po
[12] = MRT (0 to t) in ICR mouse at 1 mg/kg, iv measured upto 24 hrs by LCMS analysis; assay type: ADME, organism-based; conditions: in vivo
[13] = target: Programmed cell death 1 ligand 1 (Mus musculus, UniProt Q9EP73); assay: Binding affinity to his-tagged mouse PD-L1 expressed in HEK293 cells assessed as dissociation constant by SPR analysis
[14] = tested on: MDA-MB-231; assay: Induction of cell death in human MDA-MB-231 cells incubated for 6 days by CCK-8 assay; assay type: functional, cell-based; conditions: time 6.0 day
[15] = tested on: PBMC; assay: Induction of cell death in human PBMC cells incubated for 6 days by CCK-8 assay; assay type: functional, cell-based; conditions: time 6.0 day
[16] = tested on: MDA-MB-231; assay: Antitumor immunity activity against human MDA-MB-231 cells co-cultured with human PBMC assessed as cell killing incubated for 12 hrs; assay type: functional, cell-based
[17] = Half life in ICR mouse at 1 mg/kg, iv measured upto 24 hrs by LCMS analysis; assay type: ADME, organism-based; conditions: in vivo
[18] = Half life in ICR mouse at 10 mg/kg, IG measured upto 24 hrs by LCMS analysis; assay type: ADME, organism-based; conditions: in vivo, po
[19] = Tmax in ICR mouse at 10 mg/kg, IG measured upto 24 hrs by LCMS analysis; assay type: ADME, organism-based; conditions: in vivo, po
[20] = Cmax in ICR mouse at 10 mg/kg, IG measured upto 24 hrs by LCMS analysis; assay type: ADME, organism-based; conditions: in vivo, po
[21] = AUC (0 to t) in ICR mouse at 1 mg/kg, iv measured upto 24 hrs by LCMS analysis; assay type: ADME, organism-based; conditions: in vivo
[22] = AUC (0 to t) in ICR mouse at 10 mg/kg, IG measured upto 24 hrs by LCMS analysis; assay type: ADME, organism-based; conditions: in vivo, po
[23] = MRT (0 to t) in ICR mouse at 10 mg/kg, IG measured upto 24 hrs by LCMS analysis; assay type: ADME, organism-based; conditions: in vivo, po
[24] = MRT (0 to infinity) in ICR mouse at 1 mg/kg, iv measured upto 24 hrs by LCMS analysis; assay type: ADME, organism-based; conditions: in vivo
[25] = MRT (0 to infinity) in ICR mouse at 10 mg/kg, IG measured upto 24 hrs by LCMS analysis; assay type: ADME, organism-based; conditions: in vivo, po
[26] = Clearance in ICR mouse at 1 mg/kg, iv measured upto 24 hrs by LCMS analysis; assay type: ADME, organism-based; conditions: in vivo
[27] = Oral bioavailability in ICR mouse at 1 mg/kg measured upto 24 hrs by LCMS analysis; assay type: ADME, organism-based; conditions: in vivo
[28] = Acute toxicity in ICR mouse at 250 to 500 mg/kg, IG measured for 7 days; assay type: organism-based; conditions: in vivo, po, 168 h, dose 250-500 mg/kg, time 7 day
[29] = tested on: 4T1; assay: Antitumor activity against mouse 4T1 cells implanted in BALB/c mouse assessed as tumor growth inhibition at 5 mg/kg, IG administered twice a day for 14 days; conditions: 4T1, po, 336 h, read-out: TGI
[30] = tested on: 4T1; assay: Antitumor activity against mouse 4T1 cells implanted in BALB/c mouse assessed as tumor growth inhibition at 10 mg/kg, IG administered twice a day for 14 days; conditions: 4T1, po, 336 h, read-out: TGI
[31] = Toxicity in BALB/c mouse implanted with mouse 4T1 cells assessed as body weight loss at 5 to 10 mg/kg, IG administered twice a day for 14 days; assay type: organism-based; conditions: in vivo, po, 336 h, dose 5-10 mg/kg, time 14 day
[32] = Toxicity in BALB/c mouse implanted with mouse 4T1 cells assessed as side effect at 5 to 10 mg/kg, IG administered twice a day for 14 days; assay type: organism-based; conditions: in vivo, po, 336 h, dose 5-10 mg/kg, time 14 day
[33] = Toxicity in BALB/c mouse implanted with mouse 4T1 cells assessed as morphological changes in heart at 5 to 10 mg/kg, IG administered twice a day for 14 days by H and E staining based analysis; assay type: organism-based; conditions: in vivo, po, 336 h, dose 5-10 mg/kg, time 14 day
[34] = Toxicity in BALB/c mouse implanted with mouse 4T1 cells assessed as morphological changes in liver at 5 to 10 mg/kg, IG administered twice a day for 14 days by H and E staining based analysis; assay type: organism-based; conditions: in vivo, po, 336 h, dose 5-10 mg/kg, time 14 day
[35] = Toxicity in BALB/c mouse implanted with mouse 4T1 cells assessed as morphological changes in spleen at 5 to 10 mg/kg, IG administered twice a day for 14 days by H and E staining based analysis; assay type: organism-based; conditions: in vivo, po, 336 h, dose 5-10 mg/kg, time 14 day
[36] = Toxicity in BALB/c mouse implanted with mouse 4T1 cells assessed as morphological changes in lung at 5 to 10 mg/kg, IG administered twice a day for 14 days by H and E staining based analysis; assay type: organism-based; conditions: in vivo, po, 336 h, dose 5-10 mg/kg, time 14 day
[37] = Toxicity in BALB/c mouse implanted with mouse 4T1 cells assessed as morphological changes in kidney at 5 to 10 mg/kg, IG administered twice a day for 14 days by H and E staining based analysis; assay type: organism-based; conditions: in vivo, po, 336 h, dose 5-10 mg/kg, time 14 day
[38] = Toxicity in BALB/c mouse implanted with mouse 4T1 cells assessed as morphological changes in tumor at 5 to 10 mg/kg, IG administered twice a day for 14 days by H and E staining based analysis; assay type: organism-based; conditions: in vivo, po, 336 h, dose 5-10 mg/kg, time 14 day
[39] = tested on: 4T1; assay: Antitumor activity against mouse 4T1 cells implanted in BALB/c mouse assessed as reduction in ki-67 expression at 10 mg/kg, IG administered twice a day for 14 days by immunohistochemistry analysis; assay type: functional, organism-based; conditions: time 14.0 day

Sequence of Programmed cell death protein 1/Programmed cell death 1 ligand 1 (Q15116 whole entry): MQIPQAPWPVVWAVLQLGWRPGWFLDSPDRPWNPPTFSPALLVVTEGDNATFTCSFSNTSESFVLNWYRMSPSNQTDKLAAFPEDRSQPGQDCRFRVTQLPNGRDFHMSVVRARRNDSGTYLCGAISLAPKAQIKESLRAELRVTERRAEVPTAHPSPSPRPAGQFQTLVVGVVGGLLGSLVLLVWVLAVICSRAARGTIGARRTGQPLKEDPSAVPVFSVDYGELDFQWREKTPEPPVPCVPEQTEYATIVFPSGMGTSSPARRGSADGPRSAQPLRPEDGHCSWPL
Sequence of Programmed cell death protein 1/Programmed cell death 1 ligand 1 (Q9NZQ7 whole entry): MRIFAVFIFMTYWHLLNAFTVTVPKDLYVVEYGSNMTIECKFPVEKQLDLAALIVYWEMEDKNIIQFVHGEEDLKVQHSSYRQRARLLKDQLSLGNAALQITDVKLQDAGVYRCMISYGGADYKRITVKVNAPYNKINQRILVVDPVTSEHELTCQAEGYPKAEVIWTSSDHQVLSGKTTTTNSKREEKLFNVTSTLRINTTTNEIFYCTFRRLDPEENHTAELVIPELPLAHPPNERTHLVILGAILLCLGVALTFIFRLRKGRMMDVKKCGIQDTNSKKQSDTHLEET
Sequence of Programmed cell death protein 1 (Q15116 whole entry): as the sequence (Q15116 whole entry) above
Sequence of Programmed cell death 1 ligand 1 (Q9EP73 whole entry): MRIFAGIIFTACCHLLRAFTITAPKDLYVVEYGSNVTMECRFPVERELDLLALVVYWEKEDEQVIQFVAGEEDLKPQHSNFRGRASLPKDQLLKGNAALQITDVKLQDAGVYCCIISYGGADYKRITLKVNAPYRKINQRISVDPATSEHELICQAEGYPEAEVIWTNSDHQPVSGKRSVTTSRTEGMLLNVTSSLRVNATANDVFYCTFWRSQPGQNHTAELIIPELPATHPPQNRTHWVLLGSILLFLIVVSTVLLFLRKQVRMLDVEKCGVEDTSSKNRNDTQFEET

## O=C(Nc1cccc(-c2cccc(F)c2F)c1Cl)c1ccc2c(n1)CCN(CCO)C2
[1]
  IC50: 0.0201 µM

## O=C(Nc1cccc(-c2cccc(Cl)c2F)c1Cl)c1ccc2c(n1)CCN(CCO)C2
[1]
  IC50: 0.0242 µM

## N#Cc1cccc(-c2cccc(NC(=O)c3ccc4c(n3)CCN(CCO)C4)c2Cl)c1F
[1]
  IC50: 0.0588 µM

## COC(=O)CN1CCc2nc(OCc3cccc(-c4ccccc4F)c3Cl)ccc2C1
[1]
  IC50: 0.369 µM

## Cc1ccccc1-c1cccc(COc2ccc3c(n2)CCN(CCO)C3)c1C
[1]
  IC50: 0.406 µM

## Cc1c(COc2ccc3c(n2)CCN(CCO)C3)cccc1-c1ccccc1
[1]
  IC50: 0.227 µM

## OCCN1CCc2nc(OCc3cccc(-c4ccccc4F)c3F)ccc2C1
[1]
  IC50: 0.105 µM

## CCOC(=O)CCN1CCc2nc(OCc3cccc(-c4ccccc4F)c3Cl)ccc2C1
[1]
  IC50: 0.241 µM

## OCCN1CCc2nc(OCc3cccc(-c4ccccc4Cl)c3F)ccc2C1
[1]
  IC50: 0.101 µM

## CCOC(=O)CN1CCc2nc(C(=O)Nc3cccc(-c4cccc(C#N)c4F)c3Cl)ccc2C1
[1]
  IC50: > 1 µM

## CC(C)Oc1cccc(-c2cccc(NC(=O)c3ccc4c(n3)CCN(CCO)C4)c2Cl)c1F
[1]
  IC50: 0.0835 µM

## Cc1c(COc2ccc3c(n2)CCN(CCO)C3)cccc1-c1ccccc1Cl
[1]
  IC50: 0.216 µM

## OCCN1CCc2nc(OCc3cccc(-c4ccccc4Cl)c3Cl)ccc2C1
[1]
  IC50: 0.0951 µM

## Cc1c(COc2ccc3c(n2)CCN(CCO)C3)cccc1-c1ccccc1F
[1]
  IC50: 0.17 µM

## COc1nc(OCc2cccc(-c3ccccc3)c2C)ccc1CNCCNC(C)=O
[2]
  IC50: 19.3 µM
[3]
  IC50: 5.2 µM
[4]
  IC50: 4.33 µM
[5]
  Activity: 5.4%
[6]
  Activity: 2.52%
[7]
  Activity: 0.58%
[8]
  Activity: 1.24%

## CC(C)OC(=O)CN1CCc2nc(OCc3cccc(-c4ccccc4F)c3Cl)ccc2C1
[1]
  IC50: 0.436 µM

## CCOC(=O)CN1CCc2nc(C(=O)Nc3cccc(-c4cccc(Cl)c4F)c3Cl)ccc2C1
[1]
  IC50: > 1 µM

## CC(C(=O)O)N1CCc2nc(OCc3cccc(-c4ccccc4F)c3Cl)ccc2C1 (centres undefined)
[1]
  IC50: 0.0313 µM

## OCCN1CCc2nc(OCc3cccc(-c4ccccc4F)c3Cl)ccc2C1
[1]
  IC50: 0.0198 µM

## NC(=O)CN1CCc2nc(OCc3cccc(-c4ccccc4F)c3Cl)ccc2C1
[1]
  IC50: 0.157 µM

## Cc1c(Nc2nccc3cc(CN4CC[C@@H](O)C4)cnc23)cccc1-c1cccc(-c2nc3ccc(CN4CC[C@@H](C(=O)O)C4)c(C#N)c3o2)c1C
[9]
  IC50: 0.0031 µM

## CCOC(=O)CN1CCc2nc(C(=O)Nc3cccc(-c4cccc(OC(C)C)c4F)c3Cl)ccc2C1
[1]
  IC50: > 1 µM

## O=C(O)CN1CCc2nc(OCc3cccc(-c4ccccc4F)c3Cl)ccc2C1
[10]
  AUC(0-inf): 1820 ng·h/mL
[11]
  AUC(0-inf): 10500 ng·h/mL
[12]
  MRT last at 24 h: 3.7 h
[13]
  Kd: 392 µM
[2]
  IC50: 15.4 µM
[3]
  IC50: 77.5 µM
[4]
  IC50: 53.9 µM
[14]
  Activity: Active
[15]
  Activity: Active
[16]
  Activity: Active
[17]
  half-life: 3.51 h
[18]
  half-life: 4.95 h
[19]
  Tmax: 0.25 h
[20]
  Cmax: 1950 ng/mL
[21]
  AUC(0-t) at 24 h: 1800 ng·h/mL
[22]
  AUC(0-t) at 24 h: 10200 ng·h/mL
[23]
  MRT last at 24 h: 6.05 h
[24]
  MRT inf: 3.86 h
[25]
  MRT inf: 7.35 h
[26]
  clearance: 9.55 mL/min/kg
[27]
  bioavailability: 58%
[28]
  Activity: Non-Toxic
[29]
  inhibition in vivo at 5 mg/kg: 49%
[30]
  inhibition in vivo at 10 mg/kg: 66%
[31]
  Activity: Non-Toxic
[32]
  Activity: Non-Toxic
[33]
  Activity: Non-Toxic
[34]
  Activity: Non-Toxic
[35]
  Activity: Non-Toxic
[36]
  Activity: Non-Toxic
[37]
  Activity: Non-Toxic
[38]
  Activity: Toxic
[39]
  Activity: Active

## O=C(Nc1cccc(-c2ccccc2F)c1Cl)c1ccc2c(n1)CCN(CCO)C2
[1]
  IC50: 0.0216 µM

## CCOC(=O)C(C)N1CCc2nc(OCc3cccc(-c4ccccc4F)c3Cl)ccc2C1 (centres undefined)
[1]
  IC50: 0.592 µM

## CCOC(=O)CN1CCc2nc(C(=O)Nc3cccc(-c4cccc(F)c4F)c3Cl)ccc2C1
[1]
  IC50: 33.8 µM
